Measurements taken from patent US20040241754A1, “Modulating neuronal plasticity” (The Salk Institute for Biological Studies, priority 2003, published 2004).
Entries after “also recorded” stand apart in the source; their conditions may differ. Ends that are not written are not given here.

Legend:
GRIP PDZ4-6 = target: T1, GRIP PDZ4-6 (Rattus norvegicus, UniProt P97879); assay: Competitive binding of 35S-EphB2 to His-GRIP-PDZ4-6; details: 35S-EphB2 50 nM; fitted to the Hill equation; read-out: Ki, displacement of 35S-EphB2 binding to His-GRIP-PDZ 4-6
T1 construct: corresponding to GRIP1 (amino acid 448-792); made in house; host or cells: E. coli BL21
T1 sequence (P97879 448-792): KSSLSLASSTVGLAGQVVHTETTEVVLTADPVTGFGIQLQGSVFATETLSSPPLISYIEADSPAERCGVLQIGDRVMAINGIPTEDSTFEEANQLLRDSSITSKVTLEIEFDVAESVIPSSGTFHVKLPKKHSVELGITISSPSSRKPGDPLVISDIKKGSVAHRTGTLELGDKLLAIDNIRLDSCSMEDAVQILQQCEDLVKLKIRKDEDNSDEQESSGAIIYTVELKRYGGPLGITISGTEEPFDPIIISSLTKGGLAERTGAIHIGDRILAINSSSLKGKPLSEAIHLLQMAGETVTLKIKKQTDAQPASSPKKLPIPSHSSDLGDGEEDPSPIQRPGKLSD
Experimental: A competitive binding assay was prepared to determine if the LTP inhibitory effects of the GluR2ct peptide were mediated through disruption of binding between Eph receptors and PDZ domain 6 of GRIP (Torres et al., Neuron 21, 1453-63. (1998)) as opposed to disruption of binding between the GluR2 subunit and the GluR2-binding PDZ 4 and 5 domains of GRIP (Dong et al., Nature 386, 279-84. (1997)). For this purpose, a binding assay was established between GRIP PDZ domain fragments (His-GRIP-PDZ4-6) and an EphB2 carboxy terminal fusion protein labeled with ^35S-methionine (^35S-EphB2).
(§1) Briefly, the carboxy terminal region of EphB2 corresponding to mouse EphB2 receptor (amino acid 930-993) was generated by PCR from mouse brain library and subcloned into pGEX2TK (Pharmacia). The GRIP(PDZ4-6) construct, corresponding to GRIP1 (amino acid 448-792) was obtained by PCR from an adult rat hippocampal library and subcloned into pRSET vector. E coli (strain BL21) were transformed with His-GRIP(PDZ4-6) and GST-EphB2 and protein production induced with IPTG. GST-EphB2 protein was purified on glutathionine beads and ^35S-EphB2 cleaved from GST with thrombin (1 U/μg). GRIP(PDZ4-6) protein was purified on Ni-NTA agarose, and eluted with imadazole. ^35S-EphB2 (50 nM) was incubated with (15 μg) of His-GRIP(PDZ4-6) protein in PBS buffer with protease inhibitors for 2 hrs at 22° C. in the absence or presence of peptides. ^35S-EphB2 binding to His-GRIP(PDZ4-6) was determined after a 45 min incubation with Ni-NTA agarose and vacuum filtration onto Whatman GFB filter circles (pretreated with 3% BSA). Filters were washed with ice-cold PBS buffer, allowed to equilibrate overnight in ECOLUME scintillation cocktail (ICN pharmaceuticals, Irvine Calif.), and specific counts measured in a scintillation counter. Non-specific binding was defined as the residual binding measured in the absence of His-GRIP(PDZ4-6).

GRIP PDZ 6 domain = target: T2, GRIP PDZ 6 domain (Rattus norvegicus, UniProt P97879); assay: Competitive binding of 35S-EphB2 to His-GRIP-PDZ6
T2 construct: a GRIP fragment containing only the PDZ 6 domain; made in house; host or cells: E. coli BL21 (inferred from the PDZ4-6 construct)
T2 sequence (P97879 672-754 limits assumed): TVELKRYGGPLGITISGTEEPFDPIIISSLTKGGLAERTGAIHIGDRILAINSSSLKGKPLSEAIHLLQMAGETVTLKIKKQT
From the text: as §1, with “His-GRIP(PDZ4-6). […]” for “His-GRIP(PDZ4-6).”

[1] = system: mossy fiber synapses of hippocampal CA3 pyramidal neurons; assay: Mossy fiber LTP, whole-cell patch clamp in hippocampal slices; type: cell-based, mice
Experimental: The role of the GluR2 subunit in LTP at mossy fiber terminals was evaluated in whole cell patch clamp experiments using hippocampal CA3 pyramidal neurons. Briefly, transverse hippocampal slices (350 μm) were made from P12-18 mice (strain 129SvEv) as previously described (Contractor et al., Neuron 29, 209-16. (2001)). Slices were transferred to a recording chamber, and whole-cell patch clamp recordings made from visually identified pyramidal cells in the CA3 region of the hippocampus. The recording electrode (i.e., patch electrode) is filled with an “internal” solution described below. A seal between the glass of the electrode and the membrane of the cell is made. The seal is then “broken through” by pushing the electrode through the membrane to gain low resistance access to the cell interior and enable voltage clamping of the cell membrane. This also allows dialysis of the cell with test reagents such as peptides and antibodies. A stimulating electrode is attached to a current source and allows current to stimulate action potentials while a reference electrode is placed in the recording bath. The composition of the internal solution was: 95 mM CsF, 25 mM CsCl, 10 mM Cs-HEPES, 10 mM Cs-EGTA, 2 mM NaCl, 2 mM Mg-ATP, 10 mM QX-314, 5 mM TEA-Cl, 5 mM 4-AP, pH adjusted to 7.3 with CsOH.
Peptides were added directly to the internal solution on the day of the experiment from frozen stocks in protease inhibitors made up in phosphate buffered saline (PBS). To avoid leakage of peptides or antibodies into the extracellular space, pipette tips were filled with normal internal solution and then the pipette was backfilled with peptide/antibody containing internal fluid. The final concentration of peptides was 50 μM in all experiments. The final concentration of protease inhibitors were: bestatin 2 μg/ml, leupeptin 25 ng/ml, pepstatin 35 ng/ml, aprotinin 100 ng/ml.
In control experiments where peptides were not included, internal solutions were made up in exactly the same way with protease inhibitors in PBS but lacking any added peptide. Antibodies were made up in PBS stock and added directly to the internal solution at a final concentration of 20 μg/ml. The pH and osmolarity of all internal solutions were checked before use. Series resistances (Rs) were generally <10M and were continuously monitored throughout the duration of the experiment. […] Experiments using mutant mice were performed with heterozygous breedings blind to the genotype of the animal.
Mossy fiber EPSCs were evoked with a monopolar glass electrode positioned in the stratum lucidum. EPSCs were evaluated using a 40 ms interval between recordings. All recordings were made in the continuous presence of bicuculline (10 μM), picrotoxin (50 μM) and the NMDA receptor antagonist D-AP5 [D(-)-2-Amino-5-phosphonopentanoic acid; 50 μM]. The group II mGluR agonist, LCCG-1 (10 μM), which selectively depresses mossy fiber transmission, was applied at the end of each experiment. LTP was induced by tetanic stimulation comprising three 1 s stimulations (100 Hz) with a 10 s interval. Data are presented as mean±SEM. Parameters were compared using the Student's unpaired t-test where not specified, and the K-S test, p<0.05 was considered significant.
Cumulative probability is determined by ranking the EPSC data set from the highest to the lowest value from 20 to 30 minutes post tetanization. Each point is graphed with its corresponding percentile. […] The lowest LTP value was about 40% signified by the lowest point on the 1 st graph (open circles) and the largest LTP was about 160%.

EphA4 = EphA4 (Homo sapiens, UniProt P54764); details: read-out: Kd for binding to EphA4; cited from earlier work
EphB1 = details: read-out: Kd for binding to EphB1; cited from earlier work
EphA3 = details: read-out: Kd for binding to EphA3; cited from earlier work
EphA8 = target: T3, EphA8 (Mus musculus, UniProt O09127); details: read-out: Kd for binding to EphA8; cited from earlier work
T3 sequence (O09127 27-1004): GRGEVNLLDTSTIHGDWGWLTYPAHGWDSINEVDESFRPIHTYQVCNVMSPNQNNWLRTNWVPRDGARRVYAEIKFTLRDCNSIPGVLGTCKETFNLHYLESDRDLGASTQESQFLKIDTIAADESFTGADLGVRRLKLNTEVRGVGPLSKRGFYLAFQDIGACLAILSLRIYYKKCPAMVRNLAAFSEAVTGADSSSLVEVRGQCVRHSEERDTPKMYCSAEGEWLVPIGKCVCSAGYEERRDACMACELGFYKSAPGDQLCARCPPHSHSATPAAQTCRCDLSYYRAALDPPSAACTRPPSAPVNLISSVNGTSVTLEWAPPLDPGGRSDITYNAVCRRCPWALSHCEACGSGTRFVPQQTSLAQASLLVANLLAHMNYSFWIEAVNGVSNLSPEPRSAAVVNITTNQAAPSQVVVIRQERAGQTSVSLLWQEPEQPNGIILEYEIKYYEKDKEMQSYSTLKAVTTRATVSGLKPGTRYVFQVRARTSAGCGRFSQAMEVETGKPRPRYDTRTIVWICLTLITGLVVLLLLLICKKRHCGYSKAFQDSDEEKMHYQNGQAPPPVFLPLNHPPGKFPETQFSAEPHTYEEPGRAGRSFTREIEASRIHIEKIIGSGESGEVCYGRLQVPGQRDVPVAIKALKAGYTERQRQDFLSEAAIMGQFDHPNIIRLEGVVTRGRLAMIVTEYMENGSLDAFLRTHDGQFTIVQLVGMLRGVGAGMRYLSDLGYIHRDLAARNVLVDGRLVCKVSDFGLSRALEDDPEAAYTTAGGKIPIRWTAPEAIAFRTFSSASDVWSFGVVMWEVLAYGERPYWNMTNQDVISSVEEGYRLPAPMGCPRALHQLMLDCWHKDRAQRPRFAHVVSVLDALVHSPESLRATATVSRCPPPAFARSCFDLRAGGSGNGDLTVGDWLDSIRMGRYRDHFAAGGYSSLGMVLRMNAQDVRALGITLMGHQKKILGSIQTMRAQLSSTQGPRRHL

His-GRIP(PDZ4-6) = target: T4, His-GRIP(PDZ4-6) (rat, UniProt P97879 448-792); assay: displacement of ^35S-EphB2 (50 nM) from His-GRIP-PDZ4-6, Hill fit
T4 construct: range 448-792; not shown: His tag and vector residues from pRSET
T4 sequence (looked up): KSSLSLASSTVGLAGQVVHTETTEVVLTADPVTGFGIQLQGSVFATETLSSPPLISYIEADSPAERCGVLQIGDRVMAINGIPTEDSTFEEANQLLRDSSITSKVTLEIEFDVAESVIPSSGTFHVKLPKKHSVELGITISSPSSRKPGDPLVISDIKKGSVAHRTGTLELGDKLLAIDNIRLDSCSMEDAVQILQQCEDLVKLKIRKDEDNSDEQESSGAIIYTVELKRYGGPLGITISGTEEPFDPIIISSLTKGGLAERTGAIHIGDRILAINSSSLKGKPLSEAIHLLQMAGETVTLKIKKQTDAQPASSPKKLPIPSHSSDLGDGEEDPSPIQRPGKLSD

His-GRIP-PDZ6 = target: T5, His-GRIP-PDZ6 (UniProt P97879 672-754); assay: displacement of ^35S-EphB2 from His-GRIP-PDZ6
T5 construct: domain: PDZ 6; also called GRIP fragment containing only the PDZ 6 domain; PDZ domain 6 of GRIP; not shown: His tag
T5 sequence (looked up): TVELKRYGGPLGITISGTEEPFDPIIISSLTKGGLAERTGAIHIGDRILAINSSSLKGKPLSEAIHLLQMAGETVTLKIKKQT

[2] = peptide 50 μM in patch electrode, 40 ms interval

EphA4, sequence (P54764 20-986, species assumed): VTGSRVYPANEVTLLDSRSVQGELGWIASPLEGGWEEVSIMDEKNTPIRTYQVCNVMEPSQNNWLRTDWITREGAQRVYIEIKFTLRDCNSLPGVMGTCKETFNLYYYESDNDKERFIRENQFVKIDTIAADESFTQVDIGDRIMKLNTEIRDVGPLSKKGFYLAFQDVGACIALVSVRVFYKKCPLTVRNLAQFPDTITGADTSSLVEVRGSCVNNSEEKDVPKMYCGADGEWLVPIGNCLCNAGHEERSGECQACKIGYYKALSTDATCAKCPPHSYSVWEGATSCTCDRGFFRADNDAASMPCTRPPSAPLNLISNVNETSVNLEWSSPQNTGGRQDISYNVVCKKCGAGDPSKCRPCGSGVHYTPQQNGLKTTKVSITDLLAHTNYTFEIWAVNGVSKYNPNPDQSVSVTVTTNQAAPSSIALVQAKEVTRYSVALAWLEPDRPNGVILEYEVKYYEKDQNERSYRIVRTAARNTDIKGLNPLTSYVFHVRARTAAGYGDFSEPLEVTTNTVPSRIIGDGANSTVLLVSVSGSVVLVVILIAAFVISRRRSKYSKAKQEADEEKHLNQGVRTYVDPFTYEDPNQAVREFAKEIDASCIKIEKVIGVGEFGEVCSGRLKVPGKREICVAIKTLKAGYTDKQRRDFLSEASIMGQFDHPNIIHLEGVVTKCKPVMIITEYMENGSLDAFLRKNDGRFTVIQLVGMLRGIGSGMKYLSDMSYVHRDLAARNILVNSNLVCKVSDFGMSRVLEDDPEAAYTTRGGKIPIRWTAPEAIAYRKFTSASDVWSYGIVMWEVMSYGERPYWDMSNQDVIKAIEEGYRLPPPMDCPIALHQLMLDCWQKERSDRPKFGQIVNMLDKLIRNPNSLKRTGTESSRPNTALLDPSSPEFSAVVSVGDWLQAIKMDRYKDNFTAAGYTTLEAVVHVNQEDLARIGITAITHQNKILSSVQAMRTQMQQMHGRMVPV

NVYGIESVKI [GluR2ct, Asn-Val-Tyr-Gly-Ile-Glu-Ser-Val-Lys-Ile]
Ki (GRIP PDZ4-6): 106 nM | displacement of EphB2 from / binding to GRIP PDZ domain 6 (GRIP PDZ 6 domain): binds directly to PDZ domain 6 of GRIP; also recorded: can displace EphB2 | Ki (GRIP PDZ 6 domain; read-out: Ki, displacement of 35S-EphB2 binding to His-GRIP-PDZ6): 155 nM | LTP (potentiation of the EPSC after tetanic stimulation) ([1]; peptide 50 μM in patch electrode (postsynaptic), 25 to 30 minutes after tetanic stimulation): 140±11% | LTP PPR (paired pulse ratio after LTP induction) [1, 2]: 2.5±0.12 | control PPR (paired pulse ratio before LTP induction) [1, 2]: 2.8±0.14 | PTP (post-tetanic potentiation) ([1]; peptide 50 μM in patch electrode, immediately following tetanic stimulation): 510±67% | effect on basal synaptic transmission / basal EPSC amplitudes ([1]; peptide in patch electrode): small effect on basal synaptic transmission in some neurons | paired pulse ratio after LTP induction versus pretetanic ([1]; peptide in patch electrode): no significant difference after induction of LTP | effect on tetanus induced LTP ([1]; peptide in patch electrode (postsynaptic)): little potentiation was observed; also recorded: significantly less potentiation; also recorded: inhibit mossy fiber hippocampal CA3 neuronal LTP

B1: ephrin-A4: a 201 amino acid polypeptide; ephrin ligand (protein, UniProt P52798 26-170, looked up)
Ephrin-A4: LRHVVYWNSSNPRLLRGDAVVELGLNDYLDIVCPHYEGPGPPEGPETFALYMVDWPGYESCQAEGPRAYKRWVCSLPFGHVQFSEKIQRFTPFSLGFEFLPGETYYYISVPTPESSGQCLRLQVSVCCKERKSESAHPVGSPGES
Kd (EphA4): 5 nM | Kd (EphB1): 20 nM

B2: ephrin-B1: a 45 kDa, 346 amino acid glycosylated polypeptide; ephrin ligand (protein, UniProt P98172 1-346, looked up)
chain: MARPGQRWLGKWLVAMVVWALCRLATPLAKNLEPVSWSSLNPKFLSGKGLVIYPKIGDKLDIICPRAEAGRPYEYYKLYLVRPEQAAACSTVLDPNVLVTCNRPEQEIRFTIKFQEFSPNYMGLEFKKHHDYYITSTSNGSLEGLENREGGVCRTRTMKIIMKVGQDPNAVTPEQLTTSRPSKEADNTVKMATQAPGSRGSLGDSDGKHETVNQEEKSGPGASGGSSGDPDGFFNSKVALFAAVGAGCVIFLLIIIFLTVLLLKLRKRHRKHTQQRAAALSLSTLASPKGGSGTAGTEPSDIIIPLRTTENNYCPHYEKVSGDYGHPVYIVQEMPPQSPANIYYKV
modifications: full-length
notes: a 45 kDa, 346 amino acid glycosylated polypeptide; ephrin ligand
Kd (EphA3): 350 nM | Kd (EphB1): 0.925 nM

B3: ephrin-A2: a 213 amino acid protein; ephrin ligand (protein, UniProt O43921 1-213, looked up)
chain: MAPAQRPLLPLLLLLLPLPPPPFARAEDAARANSDRYAVYWNRSNPRFHAGAGDDGGGYTVEVSINDYLDIYCPHYGAPLPPAERMEHYVLYMVNGEGHASCDHRQRGFKRWECNRPAAPGGPLKFSEKFQLFTPFSLGFEFRPGHEYYYISATPPNAVDRPCLRLKVYVRPTNETLYEAPEPIFTSNNSCSSPGGCRLFLSTIPVLWTLLGS
modifications: full-length
notes: a 213 amino acid protein; ephrin ligand
Kd (EphA8): 1.3 nM | Kd (EphA4): 10 nM | Kd (EphA3): 1 nM

NVYGIESVKI (also called GluR2ct; R2ct) [GluR2 carboxy terminal peptide]
Ki (His-GRIP(PDZ4-6)): 106 nM | Ki (His-GRIP-PDZ6): 155 nM
